For orientation: IC50 means the point on the concentration scale where inhibition reaches its midpoint. In general, Ki refers to the dissociation constant of the complex between target and ligand, obtained from inhibition or displacement.

This passage reports IC50, Ki and inhibition results from ChEMBL document CHEMBL3813652, “Arabinoamidine synthesis and its inhibition toward β-glucosidase (sweet almonds) in comparison to a library of galactonoamidines” (Bioorg Med Chem, 2016).

Calls of active or inactive are those of the source. The rule behind the calls is not given here.

The nature of experiment [1]: Inhibition of sweet almond beta-glucosidase assessed as enzymatic hydrolysis of 2-chloro-4-nitrophenyl beta-D-glucopyranoside preincubated with substrate for 20 mins followed by protein addition by UV-visible spectroscopy. Further details: species or system Prunus dulcis.
The nature of experiment [2]: Inhibition of sweet almond beta-glucosidase assessed as enzyme mediated hydrolysis of 2-chloro-4-nitrophenyl beta-D-glucopyranoside preincubated with substrate for 30 mins followed by protein addition measured every 10 secs for 10 mins by UV-visible spectroscopy. Further details: species or system Prunus dulcis.
Experiment [3] has as its system Prunus dulcis. Put plainly: Competitive inhibition of sweet almond beta-glucosidase assessed as enzymatic hydrolysis of 2-chloro-4-nitrophenyl beta-D-glucopyranoside at 0.0125 and 0.025 uM by Lineweaver-Burk plot.
In experiment [4] the test system is Prunus dulcis. Put plainly: Competitive inhibition of sweet almond beta-glucosidase assessed as enzymatic hydrolysis of 2-chloro-4-nitrophenyl beta-D-glucopyranoside at 200 and 1200 uM by Lineweaver-Burk plot.

For `OC[C@H]1N/C(=N\Cc2ccccc2F)[C@H](O)[C@@H](O)[C@H]1O`, in experiment [1], the IC50 is 1.8 µM. For the same molecule, in experiment [2], the inhibitory constant (Ki) was found to be 118 µM.
For `OC[C@H]1N/C(=N\CC2CC2)[C@H](O)[C@@H](O)[C@H]1O`, in that order: 19 µM and 11.5 µM.
Turning to `Cc1ccc(CNC2=N[C@H](CO)[C@H](O)[C@H](O)C2)cc1`, the IC50 in experiment [1] is more than 5000 µM. For the same molecule, in experiment [2], the Ki was 7.7 µM.
Take `Cc1ccc(CNC2=N[C@H](CO)[C@@H](O)[C@@H]2O)cc1`: the IC50 in experiment [1] amounted to 6200 µM. Besides, the Ki in experiment [2] was 970 µM. The inhibition result in experiment [3] and in experiment [4] was “Active” in each case.
Consider `CC(C)(C)c1ccc(C/N=C2\N[C@H](CO)[C@H](O)[C@H](O)[C@H]2O)cc1`, for which the IC50 in experiment [1] was 2.3 µM. Also, the Ki in experiment [2] is 14.7 µM.
In the same order, the values of `COc1ccc(C/N=C2\N[C@H](CO)[C@H](O)[C@H](O)[C@H]2O)cc1` are 13 µM and 55.9 µM.
On to `Cc1ccc(C/N=C2\N[C@H](CO)[C@H](O)[C@H](O)[C@H]2O)cc1`, for which the IC50 in experiment [1] stood at 3 µM. Also, the Ki in experiment [2] was determined as 0.026 µM. Also, the inhibition result in experiment [3] and in experiment [4] was “Active” in each case.
As to `CCCCCCCCCCCC/N=C1\N[C@H](CO)[C@H](O)[C@H](O)[C@H]1O`, the IC50 in experiment [1] came to 0.4 µM. For the same molecule, the Ki in experiment [2] came out at 20.5 µM.
In the same order, the values of `Cc1cccc(C/N=C2\N[C@H](CO)[C@H](O)[C@H](O)[C@H]2O)c1` are 5.1 µM and 293 µM.
Regarding `N=C1N[C@H](CO)[C@H](O)[C@H](O)[C@H]1O`, the IC50 in experiment [1] is more than 1000 µM.
With `Cc1ccccc1C/N=C1\N[C@H](CO)[C@H](O)[C@H](O)[C@H]1O`, the IC50 in experiment [1] was determined as 8.4 µM. Further, the Ki in experiment [2] turned out to be 26.2 µM.
As to `OC[C@H]1N/C(=N\CCCc2ccccc2)[C@H](O)[C@@H](O)[C@H]1O`, the IC50 in experiment [1] was 1.3 µM. For the same molecule, the Ki in experiment [2] was 28.1 µM.
For `OC[C@H]1N/C(=N\C2CCCCC2)[C@H](O)[C@@H](O)[C@H]1O`, in experiment [1], the IC50 is more than 5000 µM.
Consider `OC[C@H]1N/C(=N\Cc2cccc(F)c2)[C@H](O)[C@@H](O)[C@H]1O`, for which, in experiment [1], the half-maximal inhibitory concentration (IC50) was found to be 11 µM. For the same molecule, the inhibition constant Ki in experiment [2] was found to be 124 µM.
Consider `CO[C@H]1C(NCc2ccc(C)cc2)=N[C@H](CO)[C@H](O)[C@@H]1O`, for which, in experiment [1], the IC50 is more than 5000 µM. Besides, the Ki in experiment [2] amounted to 5 µM.
In the same order, the values of `CO[C@@H]1[C@H](O)[C@@H](O)C(NCc2ccc(C)cc2)=N[C@@H]1CO` are more than 5000 µM and 13 µM.
For `OC[C@H]1N/C(=N\Cc2ccccc2)[C@H](O)[C@@H](O)[C@H]1O`, in that order: 2.8 µM and 108 µM.
As to `OC[C@H]1N/C(=N\C2CC2)[C@H](O)[C@@H](O)[C@H]1O`, the IC50 in experiment [1] worked out at 32 µM. The Ki in experiment [2] worked out at 11.8 µM.
Take `O=C1N[C@H](CO)[C@H](O)[C@H](O)[C@H]1O`: the IC50 in experiment [1] is more than 1000 µM.
For `CCCCCCC/N=C1\N[C@H](CO)[C@H](O)[C@H](O)[C@H]1O`, in experiment [1], the IC50 was found to be 2.2 µM. In addition, the Ki in experiment [2] amounted to 29.6 µM.
For `OC[C@H]1N/C(=N\Cc2ccc(F)cc2)[C@H](O)[C@@H](O)[C@H]1O`, in that order: 4.7 µM and 57.5 µM.
In the same order, the values of `CCCCC(CC)CNC1=N[C@H](CO)[C@H](O)[C@H](O)[C@H]1O` (stereo partly drawn) are 2.5 µM and 17.2 µM.
For `CCC/N=C1\N[C@H](CO)[C@H](O)[C@H](O)[C@H]1O`, in that order: 4.8 µM and 18.7 µM.
For the molecule `OC[C@H]1N/C(=N\CC2CCCCCC2)[C@H](O)[C@@H](O)[C@H]1O`, in experiment [1], the IC50 came to 5 µM. Further, the Ki in experiment [2] stood at 27.1 µM.
For `OC[C@H]1N/C(=N\Cc2ccc(C(F)(F)F)cc2)[C@H](O)[C@@H](O)[C@H]1O`, in that order: 2.8 µM and 87.9 µM.
In the same order, the values of `OC[C@H]1N/C(=N\CC2CCCCC2)[C@H](O)[C@@H](O)[C@H]1O` are 1.6 µM and 49.2 µM.
